According to US10040798B2, “Pyrrolopyridazine inhibitors of IRAK4 activity” (MERCK SHARP & DOHME CORP., priority 2015, dated 2018):
Counter-ions that a name gives are not always drawn.

Molecular target: IRAK4 (Homo sapiens (Human), UniProt Q9NWZ3)
Assay: IRAK4 Kinase Assay (IMAP fluorescence polarization)
Format: biochemical
Conditions: 0.5 nM GST tagged IRAK4, 100 μM ATP, 30 minutes at 25° C., IMAP FP
Outline: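 GST-tagged IRAK4 (0.5 nM) phosphorylated 100 nM fluorescent peptide RP7030 with 100 μM ATP in 10 mM Tris-HCl pH 7.2, MgCl2, DTT and Tween 20 for 30 min at 25 °C. Phosphorylation was read as the increase in fluorescence polarization after binding to IMAP nanoparticles.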

Chain of IRAK4 (Q9NWZ3 whole entry): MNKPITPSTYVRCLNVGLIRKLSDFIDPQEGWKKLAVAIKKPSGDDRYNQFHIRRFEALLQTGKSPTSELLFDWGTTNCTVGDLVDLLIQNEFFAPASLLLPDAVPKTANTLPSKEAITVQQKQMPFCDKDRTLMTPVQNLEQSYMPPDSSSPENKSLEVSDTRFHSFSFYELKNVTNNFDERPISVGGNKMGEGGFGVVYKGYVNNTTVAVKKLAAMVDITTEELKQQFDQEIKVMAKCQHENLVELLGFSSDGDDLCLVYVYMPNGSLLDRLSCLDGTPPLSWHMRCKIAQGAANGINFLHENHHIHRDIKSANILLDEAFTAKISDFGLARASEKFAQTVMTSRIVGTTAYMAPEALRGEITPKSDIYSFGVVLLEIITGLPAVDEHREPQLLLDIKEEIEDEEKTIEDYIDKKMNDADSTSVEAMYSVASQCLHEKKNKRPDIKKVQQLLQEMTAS

| IC50 | Compound |
| --- | --- |
| 151 nM | O=C(Nc1cscc1C(F)F)c1ccc2ccc(N3CCCNCC3)nn12 [Example 69, 2-(1,4-diazepan-1-yl)-N-[4-(difluoromethyl)thiophen-3-yl]pyrrolo[1,2-b]pyridazine-7-carboxamide trifluoroacetate] |
| 433 nM | O=C(Nc1ccsc1Cl)c1ccc2ccc(N3CC4CCC3CN4)nn12 (stereo not drawn) [Example 70, N-(2-chlorothiophen-3-yl)-2-(2,5-diazabicyclo[2.2.2]oct-2-yl)pyrrolo[1,2-b]pyridazine-7-carboxamide trifluoroacetate] |
| 4 nM | N[C@H]1CCCC[C@H]1Nc1ccc2ccc(C(=O)Nc3ccsc3Cl)n2n1 [Example 71, 2-{[(1R,2S)-2-aminocyclohexyl]amino}-N-(2-chlorothiophen-3-yl)pyrrolo[1,2-b]pyridazine-7-carboxamide trifluoroacetate] |
| 24 nM | N[C@H]1CCCC[C@H]1Nc1ccc2ccc(C(=O)Nc3cscc3C(F)F)n2n1 [Example 72, 2-{[(1R,2S)-2-aminocyclohexyl]amino}-N-[4-(difluoromethyl)thiophen-3-yl]pyrrolo[1,2-b]pyridazine-7-carboxamide trifluoroacetate] |
| 3 nM | N#Cc1cscc1NC(=O)c1ccc2ccc(N[C@@H]3CCCC[C@@H]3N)nn12 [Example 73, 2-{[(1R,2S)-2-aminocyclohexyl]amino}-N-(4-cyanothiophen-3-yl)pyrrolo[1,2-b]pyridazine-7-carboxamide trifluoroacetate] |
| 134 nM | N#Cc1cscc1NC(=O)c1ccc2ccc(N3CC4CCC3CN4)nn12 (stereo not drawn) [Example 74, N-(4-cyanothiophen-3-yl)-2-(2,5-diazabicyclo[2.2.2]oct-2-yl)pyrrolo[1,2-b]pyridazine-7-carboxamide trifluoroacetate] |
| 2 nM | N#Cc1sccc1NC(=O)c1ccc2ccc(N[C@@H]3CCCC[C@@H]3N)nn12 [Example 75, 2-{[(1R,2S)-2-aminocyclohexyl]amino}-N-(2-cyanothiophen-3-yl)pyrrolo[1,2-b]pyridazine-7-carboxamide trifluoroacetate] |
| 1320 nM | O=C(Nc1ccsc1Br)c1ccc2ccc(N3CCCNCC3)nn12 [Example 76, N-(2-bromothiophen-3-yl)-2-(1,4-diazepan-1-yl)pyrrolo[1,2-b]pyridazine-7-carboxamide trifluoroacetate] |
| 11 nM | N[C@H]1CCCC[C@H]1Nc1ccc2ccc(C(=O)Nc3ccsc3Br)n2n1 [Example 77, 2-{[(1R,2S)-2-aminocyclohexyl]amino}-N-(2-bromothiophen-3-yl)pyrrolo[1,2-b]pyridazine-7-carboxamide trifluoroacetate] |
| 308 nM | O=C(Nc1cscc1Cl)c1ccc2ccc(N3CCCNCC3)nn12 [Example 82, N-(4-chlorothiophen-3-yl)-2-(1,4-diazepan-1-yl)pyrrolo[1,2-b]pyridazine-7-carboxamide trifluoroacetate] |
| 2 nM | N[C@H]1CCCC[C@H]1Nc1ccc2ccc(C(=O)Nc3cscc3Cl)n2n1 [Example 85, 2-{[(1R,2S)-2-aminocyclohexyl]amino}-N-(4-chlorothiophen-3-yl)pyrrolo[1,2-b]pyridazine-7-carboxamide trifluoroacetate] |
| 5240 nM | N[C@@H]1[C@H](Nc2ccc3ccc(C(=O)Nc4ccsc4Br)n3n2)CCCC1(F)F [Example 86, 2-{[(1R,2R)-2-amino-3,3-difluoro-cyclohexyl]amino}-N-(2-bromothiophen-3-yl)pyrrolo[1,2-b]pyridazine-7-carboxamide trifluoroacetate] |
| 2170 nM | N[C@@H]1[C@H](Nc2ccc3ccc(C(=O)Nc4cscc4Cl)n3n2)CCCC1(F)F [Example 87, 2-{[(1R,2R)-2-amino-3,3-difluoro-cyclohexyl]amino}-N-(4-chlorothiophen-3-yl)pyrrolo[1,2-b]pyridazine-7-carboxamide acetate] |
| 6160 nM | N[C@@H]1[C@H](Nc2ccc3ccc(C(=O)Nc4cscc4Br)n3n2)CCCC1(F)F [Example 88, 2-{[(1R,2R)-2-amino-3,3-difluoro-cyclohexyl]amino}-N-(4-bromothiophen-3-yl)pyrrolo[1,2-b]pyridazine-7-carboxamide trifluoroacetate] |
| 342 nM | N#Cc1cscc1NC(=O)c1ccc2ccc(N[C@@H]3CCCC(F)(F)[C@@H]3N)nn12 [Example 89, 2-{[(1R,2R)-2-amino-3,3-difluoro-cyclohexyl]amino}-N-(4-cyanothiophen-3-yl)pyrrolo[1,2-b]pyridazine-7-carboxamide trifluoroacetate] |
| 1920 nM | N[C@@H]1[C@H](Nc2ccc3ccc(C(=O)Nc4ccsc4Cl)n3n2)CCCC1(F)F [Example 90, 2-{[(1R,2R)-2-amino-3,3-difluoro-cyclohexyl]amino}-N-(2-chlorothiophen-3-yl)pyrrolo[1,2-b]pyridazine-7-carboxamide trifluoroacetate] |
| 6370 nM | O=C(Nc1ccsc1Cl)c1ccc2ccc(N[C@@H]3CCCC[C@@H]3O)nn12 [Example 91, N-(2-chlorothiophen-3-yl)-2-{[(1R,2S)-2-hydroxycyclohexyl]amino}pyrrolo[1,2-b]pyridazine-7-carboxamide] |
| 2060 nM | N[C@@H]1[C@H](Nc2ccc3ccc(C(=O)Nc4ccccc4Cl)n3n2)CCCC1(F)F [Example 92, 2-{[(1R,2R)-2-amino-3,3-difluoro-cyclohexyl]amino}-N-(2-chlorophenyl)pyrrolo[1,2-b]pyridazine-7-carboxamide trifluoroacetate] |
| 6840 nM | O=C(Nc1ccccc1Cl)c1ccc2ccc(N[C@@H]3CCCC[C@@H]3O)nn12 [Example 93, N-(2-chlorophenyl)-2-{[(1R,2S)-2-hydroxycyclohexyl]amino}pyrrolo[1,2-b]pyridazine-7-carboxamide trifluoroacetate] |
| 5630 nM | N[C@@H]1[C@H](Nc2ccc3ccc(C(=O)Nc4ccccc4Br)n3n2)CCCC1(F)F [Example 94, 2-{[(1R,2R)-2-amino-3,3-difluoro-cyclohexyl]amino}-N-(2-bromophenyl)pyrrolo[1,2-b]pyridazine-7-carboxamide trifluoroacetate] |
| 5860 nM | O=C(Nc1ccccc1Br)c1ccc2ccc(N[C@@H]3CCCC[C@@H]3O)nn12 [Example 95, N-(2-bromophenyl)-2-{[(1R,2S)-2-hydroxycyclohexyl]amino}pyrrolo[1,2-b]pyridazine-7-carboxamide trifluoroacetate] |
| 753 nM | N[C@@H]1[C@H](Nc2ccc3ccc(C(=O)Nc4cscc4C(F)F)n3n2)CCCC1(F)F [Example 96, 2-{[(1R,2R)-2-amino-3,3-difluoro-cyclohexyl]amino}-N-[4-(difluoro-methyl)thiophen-3-yl]pyrrolo[1,2-b]pyridazine-7-carboxamide trifluoroacetate] |
| 1370 nM | N#Cc1sccc1NC(=O)c1ccc2ccc(N[C@@H]3CCCC[C@@H]3O)nn12 [Example 97, N-(2-cyanothiophen-3-yl)-2-{[(1R,2S)-2-hydroxycyclohexyl]amino}pyrrolo[1,2-b]pyridazine-7-carboxamide trifluoroacetate] |
| 526 nM | N#Cc1sccc1NC(=O)c1ccc2ccc(N[C@@H]3CCCC(F)(F)[C@@H]3N)nn12 [Example 98, 2-{[(1R,2R)-2-amino-3,3-difluorocyclohexyl]amino}-N-(2-cyanothiophen-3-yl)pyrrolo[1,2-b]pyridazine-7-carboxamide trifluoroacetate] |
